Measurements published in publication PMC10026764, “Overcoming the imatinib-resistant BCR-ABL mutants with new ureidobenzothiazole chemotypes endowed with potent and broad-spectrum anticancer activity” (Journal of Enzyme Inhibition and Medicinal Chemistry, 2023).
Where “and” joins values, the source holds several entries; their conditions need not be identical. Equal entries are not always repeated. Where two headings read alike, the source gives them in different places.

How the values were obtained:
[1] = system: SF-268; test: NCI-60 five-dose SRB assay; format: cell-based; details: Homo sapiens; SF-268, CNS cancer
[2] = system: MALME-3M; test: NCI-60 five-dose SRB assay; format: cell-based; details: Homo sapiens, melanoma
[3] = system: SNB-19; test: NCI-60 five-dose SRB assay; format: cell-based; details: Homo sapiens; SNB-19, CNS cancer
[4] = system: MCF7; test: NCI-60 five-dose SRB assay; format: cell-based, human; details: MCF7, breast cancer; for GI50 / CC50: Homo sapiens; for CC50: read-out: LC50 (the source's name)
[5] = system: HL-60(TB); test: NCI-60 five-dose SRB assay; format: cell-based; details: Homo sapiens, leukaemia
[6] = system: MOLT-4; test: NCI-60 five-dose SRB assay; format: cell-based, human; details: MOLT-4, leukaemia; for GI50 / CC50: Homo sapiens; for CC50: read-out: LC50 (the source's name)
[7] = system: IGROV1; test: NCI-60 five-dose SRB assay; format: cell-based; details: Homo sapiens, IGROV-1; IGROV1, ovarian cancer
[8] = system: DU-145; test: NCI-60 five-dose SRB assay; format: cell-based, human; details: DU-145, prostate cancer; for GI50 / CC50: Homo sapiens; for CC50: read-out: LC50 (the source's name)
[9] = biological target: ABL^E255K (Homo sapiens, UniProt P00519, E255K); test: In vitro enzymatic activity, imatinib-resistant mutant panel
[10] = system: NCI-H23; test: NCI-60 five-dose SRB assay; format: cell-based; details: Homo sapiens; NCI-H23, non-small cell lung cancer
[11] = system: A549/ATCC; test: NCI-60 five-dose SRB assay; format: cell-based; details: Homo sapiens, non-small cell lung cancer
[12] = system: KM12; test: NCI-60 five-dose SRB assay; format: cell-based; details: Homo sapiens; KM12, colon cancer
[13] = system: SN12C; test: NCI-60 five-dose SRB assay; format: cell-based; details: Homo sapiens, renal cancer
[14] = system: RPMI-8226; test: NCI-60 five-dose SRB assay; format: cell-based; details: Homo sapiens; RPMI-8226, leukaemia
[15] = system: NCI-60 cell lines; test: NCI-60 single dose SRB assay (panel); format: cell-based; details: single dose 10 μM
Excerpt: To gain further insights about the anticancer profile of this new ureidobenzothiazole chemotypes, the structures of all final compounds were submitted to the National Cancer Institute (NCI, Developmental Therapeutics Program, Bethesda, MD, USA). Based on NCI selection criteria, compounds 2b (AK-HW-90), 2e, and 2f were chosen for broad screening against a library of 60 human cancer cell lines, representing nine types of blood and solid cancers. Employing the highly sensitive sulforhodamine B (SRB) assay, compounds 2b, 2e, and 2f were tested initially at a single dose of 10 μM, and their detailed activities on the percentages growth of the NCI-60 cell lines were illustrated in Figure 5, and compared with that observed for the lead benzothiazole AKE-5l.

[16] = system: OVCAR-4; test: NCI-60 five-dose SRB assay; format: cell-based; details: Homo sapiens; OVCAR-4, ovarian cancer
[17] = system: A498; test: NCI-60 five-dose SRB assay; format: cell-based; details: Homo sapiens; A498, renal cancer
[18] = system: HCC-2998; test: NCI-60 five-dose SRB assay; format: cell-based; details: Homo sapiens; HCC-2998, colon cancer
[19] = system: UACC-257; test: NCI-60 five-dose SRB assay; format: cell-based; details: Homo sapiens; UACC-257, melanoma
[20] = system: SF-295; test: NCI-60 five-dose SRB assay; format: cell-based; details: Homo sapiens; SF-295, CNS cancer
[21] = system: K-562; test: NCI-60 five-dose SRB assay; format: cell-based, human; details: K-562, leukaemia
[22] = system: PC-3; test: NCI-60 five-dose SRB assay; format: cell-based; details: Homo sapiens; PC-3, prostate cancer
[23] = biological target: T1, BCR-ABL^T315I (Homo sapiens, UniProt P00519, T315I); test: In vitro kinase screening (RBC), BCR-ABL^T315I; format: biochemical; details: 10-dose IC50 mode, 3-fold serial dilution, 10 μM ATP
T1 construct: purchased Reaction Biology Corporation (RBC, Malvern, PA, USA)

[24] = system: BT-549; test: NCI-60 five-dose SRB assay; format: cell-based; details: Homo sapiens; BT-549, breast cancer
[25] = system: OVCAR-5; test: NCI-60 five-dose SRB assay; format: cell-based, human; details: OVCAR-5, ovarian cancer; for GI50 / LC50 (50% net cell kill): Homo sapiens
[26] = system: SR; test: NCI-60 five-dose SRB assay; format: cell-based, human; details: leukaemia
[27] = system: NCI/ADR-RES; test: NCI-60 five-dose SRB assay; format: cell-based; details: Homo sapiens, ovarian cancer
[28] = system: HCT-15; test: NCI-60 five-dose SRB assay; format: cell-based, human; details: HCT-15, colon cancer; for GI50 / CC50: Homo sapiens; for CC50: read-out: LC50 (the source's name)
[29] = system: CAKI-1; test: NCI-60 five-dose SRB assay; format: cell-based; details: Homo sapiens; CAKI-1, renal cancer
[30] = system: TK-10; design: method as in earlier work; details: imatinib mesylate NSC 743414, NCI data; cited from earlier work
[31] = system: EKVX; design: method as in earlier work; details: imatinib mesylate NSC 743414, NCI data; cited from earlier work
[32] = system: UACC-257; design: method as in earlier work; details: imatinib mesylate NSC 743414, NCI data; cited from earlier work
[33] = system: RXF 393; design: method as in earlier work; details: imatinib mesylate NSC 743414, NCI data; cited from earlier work
[34] = system: MDA-MB-231; design: method as in earlier work; details: imatinib mesylate NSC 743414, NCI data; cited from earlier work
[35] = system: RPMI-8226; design: method as in earlier work; details: imatinib mesylate NSC 743414, NCI data; cited from earlier work
[36] = system: A498; design: method as in earlier work; details: imatinib mesylate NSC 743414, NCI data; cited from earlier work

CCN1CCN(c2ccc(NC(=O)Nc3nc4ccc(-c5ccccc5OC)cc4s3)cc2)CC1 [Compound 2b]
GI50 [1]: 1.87 µM
GI50 [2]: 1.71 µM
GI50 [3]: 2.03 µM
GI50 [4]: 1.31 µM
CC50 [4]: 6.25 µM
TGI [4]: 2.86 µM
GI50 [5]: 1.73 µM
GI50 [6]: 1.8 µM
CC50 [6]: 7.45 µM
TGI [6]: 3.67 µM
GI50 [7]: 1.87 µM
TGI [8]: 3.26 µM
GI50 [8]: 1.74 µM
CC50 [8]: 6.08 µM
IC50 [9]: 0.00247 µM
GI50 [10]: 1.67 µM
GI50 [11]: 1.98 µM
GI50 [12]: 1.75 µM
GI50 [13]: 1.77 µM
GI50 [14]: 2.06 µM
number of cancer cells with lethal/cytotoxic effects (minus % growth values) [15]: 55 cancer cells
GI50 [16]: 1.68 µM
GI50 [17]: 1.8 µM
GI50 [18]: 1.83 µM
GI50 [19]: 2.11 µM
GI50 [20]: 1.68 µM
GI50 ([21]; Homo sapiens, K562): 0.293 µM
TGI [21]: 1.34 µM
GI50 [22]: 1.79 µM
IC50 [23]: 0.00065 µM and 0.000651 µM
GI50 [24]: 1.88 µM
GI50 [25]: 1.8 µM
LC50 (50% net cell kill) [25]: 6.33 µM
TGI [25]: 3.37 µM
GI50 ([26]; Homo sapiens): ~1.7 µM
GI50 [26]: 1.65 µM
GI50 [27]: 1.72 µM
TGI [28]: 2.47 µM
GI50 [28]: 1.2 µM
CC50 [28]: 5.06 µM

COc1ccccc1-c1ccc2nc(NC(=O)Nc3cc(C(F)(F)F)cc(C(F)(F)F)c3)sc2c1 [Compound 2e]
GI50 [1]: 2.86 µM
GI50 [2]: 1.81 µM
GI50 [3]: 2.44 µM
GI50 [4]: 2.28 µM
CC50 [4]: 46.2 µM
TGI [4]: 10.9 µM
GI50 [5]: 2.01 µM
GI50 [6]: 1.59 µM
CC50 [6]: 51.3 µM
TGI [6]: 7.24 µM
GI50 [7]: 2.83 µM
TGI [8]: 14.9 µM
GI50 [8]: 4 µM
CC50 [8]: 42.4 µM
GI50 [10]: 2.02 µM
GI50 [11]: 3.19 µM
GI50 [12]: 2.07 µM
GI50 [13]: 1.7 µM
GI50 [29]: 2.33 µM
GI50 [14]: 1.63 µM
number of cancer cells with lethal/cytotoxic effects (minus % growth values) [15]: 21 cancer cells
GI50 [16]: 2.12 µM
GI50 [17]: 1.64 µM
GI50 [18]: 2.65 µM
GI50 [19]: 2.31 µM
GI50 [20]: 2.64 µM
GI50 ([21]; Homo sapiens, K562): 1.54 µM
CC50 ([21]; Homo sapiens, K562, read-out: LC50 (the source's name)): 43.9 µM
TGI [21]: 8.95 µM
GI50 [22]: 1.49 µM
IC50 [23]: 9.56 µM
GI50 [24]: 1.62 µM
GI50 [25]: 2.54 µM
LC50 (50% net cell kill) [25]: 32.7 µM
TGI [25]: 9.66 µM
GI50 ([26]; Homo sapiens): ~1.7 µM
GI50 [26]: 1.76 µM
GI50 [27]: 2.37 µM
TGI [28]: 10.6 µM
GI50 [28]: 2.55 µM
CC50 [28]: 34.6 µM

Cc1ccc(NC(=O)c2ccc(CN3CCN(C)CC3)cc2)cc1Nc1nccc(-c2cccnc2)n1 [Imatinib]
GI50 [30]: 26.9 µM
GI50 [31]: 26.2 µM
GI50 [32]: 21.1 µM
GI50 [33]: 15.1 µM
GI50 [34]: 18.7 µM
GI50 [35]: 6.05 µM
GI50 [36]: 22 µM
